Holding throughout (assay type): functional
Experiment [1] concerns Tetranychus cinnabarinus. The experiment in a line: Acaricidal activity against Tetranychus cinnabarinus (carmine spider mite) eggs assessed as mortality at 200 mg/L. To be noted: Egg.
The subject of experiment [2] is Mythimna separata. The experiment in a line: Insecticidal activity against Mythimna separata (Oriental armyworm) assessed as mortality at 200 mg/L.
Experiment [3] concerns Tetranychus cinnabarinus. The experiment can be described thus: Acaricidal activity against Tetranychus cinnabarinus (carmine spider mite) larvae assessed as mortality at 200 mg/L.
For experiment [4], the system named is Tetranychus cinnabarinus. The experiment can be described thus: Acaricidal activity against Tetranychus cinnabarinus (carmine spider mite) assessed as mortality at 200 mg/L.
Experiment [5] deals with Mythimna separata. The experiment in a line: Insecticidal activity against Mythimna separata (Oriental armyworm) assessed as mortality at 100 mg/L.
Experiment [6] has as its system Mythimna separata. The experiment can be described thus: Insecticidal activity against Mythimna separata (Oriental armyworm) assessed as mortality at 50 mg/L.
Experiment [7] concerns Mythimna separata. The experiment in a line: Insecticidal activity against Mythimna separata (Oriental armyworm) assessed as mortality at 25 mg/L.
The test system of experiment [8] is Tetranychus cinnabarinus. The experiment in a line: Acaricidal activity against Tetranychus cinnabarinus (carmine spider mite) assessed as mortality at 100 mg/L.
Experiment [9] relates to Tetranychus cinnabarinus. The experiment in a line: Acaricidal activity against Tetranychus cinnabarinus (carmine spider mite) eggs assessed as mortality at 100 mg/L. Conditions: Egg.
Experiment [10] has as its system Tetranychus cinnabarinus. The experiment in a line: Acaricidal activity against Tetranychus cinnabarinus (carmine spider mite) larvae assessed as mortality at 100 mg/L.

Molecules are shown by their SMILES.

One may read the mortality as the percentage killed.

In the case of `N#Cc1cc(C(=O)Nc2ccc(C(F)(F)F)cc2)[nH]c1-c1ccc(Br)cc1`, the mortality at 200 µg/mL in the experiment with Tetranychus cinnabarinus [1], with Mythimna separata [2], with Tetranychus cinnabarinus [3] and with Tetranychus cinnabarinus [4] was 0% throughout.
Turning to `N#Cc1cc(C(=O)Nc2ccc(C(F)(F)F)cc2)[nH]c1-c1ccc(Cl)cc1`, the mortality at 200 µg/mL with Tetranychus cinnabarinus [1], in the experiment with Mythimna separata [2], in the experiment on Tetranychus cinnabarinus [3] and in the experiment with Tetranychus cinnabarinus [4] was 0% in each case.
Consider `N#Cc1c(-c2ccc(Cl)cc2)[nH]c(C(=O)Nc2ccc(C(F)(F)F)cc2)c1Br`, for which the mortality at 200 µg/mL in the experiment with Tetranychus cinnabarinus [1], in the experiment on Mythimna separata [2], in the experiment with Tetranychus cinnabarinus [3] and with Tetranychus cinnabarinus [4] was 0% each time.
Turning to `N#Cc1c(-c2ccc(Cl)cc2)[nH]c(C(=O)NC2CCCCC2)c1Br`, the mortality at 200 µg/mL worked out at 0% in the experiment with Tetranychus cinnabarinus [1], 80% with Mythimna separata [2], 0% in the experiment on Tetranychus cinnabarinus [3] and 0% in the experiment on Tetranychus cinnabarinus [4].
With `CCN(CC)C(=O)c1[nH]c(-c2ccc(Cl)cc2)c(C#N)c1Br`, the mortality at 200 µg/mL in the experiment on Tetranychus cinnabarinus [1], in the experiment with Mythimna separata [2], in the experiment on Tetranychus cinnabarinus [3] and in the experiment with Tetranychus cinnabarinus [4] was 0% in each case.
Turning to `N#Cc1c(-c2ccc(Cl)cc2)[nH]c(C(=O)NCc2ccccc2)c1Br`, the mortality at 200 µg/mL in the experiment with Tetranychus cinnabarinus [1], with Mythimna separata [2], in the experiment on Tetranychus cinnabarinus [3] and in the experiment with Tetranychus cinnabarinus [4] was 0% in each case.
In the case of `COC(=O)c1[nH]c(-c2ccc(Cl)cc2)c(C#N)c1Br`, in the experiment with Mythimna separata [5], the mortality at 100 µg/mL turned out to be 100%. For the same molecule, the mortality at 50 µg/mL with Mythimna separata [6] is 40%. Moreover, the mortality at 200 µg/mL in the experiment with Tetranychus cinnabarinus [1] was 0%; in the experiment on Mythimna separata [2] it was 100%; with Tetranychus cinnabarinus [3], 40%; with Tetranychus cinnabarinus [4], 60%. In addition, the mortality at 25 µg/mL with Mythimna separata [7] is 0%.
Turning to `CCOC(=O)c1[nH]c(-c2ccc(Cl)cc2)c(C#N)c1Br`, the mortality at 100 µg/mL was determined as 100% with Mythimna separata [5], 40% in the experiment with Tetranychus cinnabarinus [8], 54% in the experiment on Tetranychus cinnabarinus [9] and 52% with Tetranychus cinnabarinus [10]. The mortality at 50 µg/mL in the experiment on Mythimna separata [6] worked out at 60%. In addition, the mortality at 200 µg/mL in the experiment with Tetranychus cinnabarinus [1] was found to be 81%; in the experiment with Mythimna separata [2] it was 100%; in the experiment on Tetranychus cinnabarinus [3] it was 76%; in the experiment on Tetranychus cinnabarinus [4], 78%. In addition, the mortality at 25 µg/mL in the experiment with Mythimna separata [7] came to 0%.
For the molecule `N#Cc1c(-c2ccc(Cl)cc2)[nH]c(C(=O)OCc2ccccc2)c1Br`, in the experiment with Mythimna separata [5], the mortality at 100 µg/mL stood at 100%. For the same molecule, the mortality at 50 µg/mL with Mythimna separata [6] was determined as 100%. The mortality at 200 µg/mL in the experiment with Tetranychus cinnabarinus [1] amounted to 0%; with Mythimna separata [2] it was 100%; in the experiment with Tetranychus cinnabarinus [3], 0%; in the experiment on Tetranychus cinnabarinus [4], 0%. The mortality at 25 µg/mL in the experiment on Mythimna separata [7] turned out to be 0%.
As for `N#Cc1c(-c2ccc(Cl)cc2)[nH]c(C(F)(F)F)c1Br`, the mortality at 100 µg/mL in the experiment with Mythimna separata [5], in the experiment with Tetranychus cinnabarinus [8], in the experiment on Tetranychus cinnabarinus [9] and with Tetranychus cinnabarinus [10] was 100% throughout. In the experiment on Mythimna separata [6], the mortality at 50 µg/mL was determined as 100%. The mortality at 200 µg/mL in the experiment on Tetranychus cinnabarinus [1], with Mythimna separata [2], with Tetranychus cinnabarinus [3] and with Tetranychus cinnabarinus [4] was 100% each time. Also, the mortality at 25 µg/mL with Mythimna separata [7] is 100%.
Regarding `CCOCn1c(-c2ccc(Cl)cc2)c(C#N)c(Br)c1C(F)(F)F` [CHLORFENAPYR], the mortality at 100 µg/mL with Mythimna separata [5], in the experiment on Tetranychus cinnabarinus [8], with Tetranychus cinnabarinus [9] and in the experiment on Tetranychus cinnabarinus [10] was 100% each time. Besides, the mortality at 50 µg/mL with Mythimna separata [6] is 100%. Further, the mortality at 200 µg/mL in the experiment on Tetranychus cinnabarinus [1], with Mythimna separata [2], in the experiment with Tetranychus cinnabarinus [3] and in the experiment with Tetranychus cinnabarinus [4] was 100% in each case. For the same molecule, in the experiment on Mythimna separata [7], the mortality at 25 µg/mL came to 100%.
